Assay results from PMC10590756, “Glutarate regulates T cell metabolism and anti-tumour immunity” (Nature Metabolism, 2023).

Key:
[1] = tested on: primary murine CD8^+ T cells; assay: Screen of T cell differentiation: CD62L/CD44 populations by flow cytometry; type: cell-based, mouse
Excerpt: We first sought to investigate if compounds structurally related to 2HG could increase the TCM population of CD8^+ T cells. To carry out this analysis, we identified 19 structural analogues of 2HG; eight were commercially available and 11 were synthesized de novo for the purposes of this study (Table 1). We used esterified versions of most of the compounds used, so as to increase both potency and intracellular translocation. The octyl ester form of S-2HG was used as a positive control in these assays. We screened the compounds for effects on T cell differentiation at 400-µM levels (using the efficacy of S-2HG in CD8^+ T cells as a guide[11]) in culture media during the process of activation of isolated primary murine CD8^+ T cells.
After 7 days of culture, we assessed the abundance of CD62L^hiCD44^hi (TCM-like) T cells by flow cytometry (Fig. 1a). We additionally determined the effect of each compound on cell growth and viability (Fig. 1b and Extended Data Fig. 1a).
Mouse CD8^+ T cells were isolated from mouse spleens using positive selection. Incubation with microbeads conjugated to monoclonal anti-mouse CD8α (Ly-2; isotype: rat IgG2a) antibody (catalogue no. 130-049-401, Miltenyi Biotec) was followed by magnetic bead isolation on a MACS column. WT mouse CD8^+ T cells were activated with anti-mouse CD3/CD28 Dynabeads (catalogue no. 11453D, Thermo Fisher Scientific) at a 1:1 cell:bead ratio. Purified OT1 CD8^+ T cells were activated with 1 µg ml^−1 of the OVA-derived peptide SIINFEKL (ProImmune). All mouse CD8^+ T cells were cultured in complete RPMI 1640 supplemented with 10% FCS, 100 U ml^−1 penicillin, 100 µg ml^−1 streptomycin, 55 µM 2-ME (catalogue no. 21985023, Gibco) and 10 U ml^−1 IL-2.
Single-cell suspensions were stained with LIVE/DEAD Fixable Near-IR Dead Cell Stain Kit (catalogue no. 10119, Thermo Fisher Scientific) followed by surface and intracellular staining with fluorochrome-labelled antibodies (Supplementary Tables 1 and 2). […]

[2] = tested on: H3 lysine methylation in human CD8^+ T cells; assay: Histone 3 methylation western blot; type: cell-based; conditions: DEG 500 µM, 7 days
Method: Histones were extracted with the Histone Extraction Kit (catalogue no. ab113476, Abcam). Proteins were separated by SDS–PAGE and transferred to polyvinylidene fluoride (PVDF) membranes. Total protein stain was obtained using non-stain protein labelling reagent (catalogue no. A44448, Thermo Fisher Scientific). Membranes were then blocked in 5% milk prepared in PBS plus 0.05% Tween-20, incubated with primary antibodies overnight at 4 °C and horseradish peroxidase (HRP)-conjugated secondary antibodies (catalogue nos. HAF008 and HAF007, R&D Systems) for 1 h the next day. After enhanced chemiluminescence (ECL) exposure (catalogue no. GERPN2106, Sigma-Aldrich), membranes were imaged using an iBrightCL1000 (Thermo Fisher Scientific). […] 13998); and anti-H3k27ac (catalogue no.

[3] = tested on: murine OT1 T cells; assay: Growth of murine OT1 T cells; type: cell-based, mouse; conditions: 500 µM, 7 days
Method: B16F10 cells were originally purchased from ATCC (catalogue no. CRL-6475) and genetically modified to express OVA, enhanced green fluorescent protein (GFP) and neomycin phosphotransferase. The resulting OVA expression B16F10-OVA cells were cultured in DMEM (catalogue no. 11995065, Thermo Fisher Scientific) containing 0.75 mg ml^−1 G418 sulphate (catalogue no. 10131027, Thermo Fisher Scientific). HEK 293T cells were purchased from Takara Bio (catalogue no. 632180) and cultured in DMEM. SKOV3 was purchased from ATCC (catalogue no. HTB-77) and cultured in McCoy’s 5A (Modified) Medium (catalogue no. 16600082, Thermo Fisher Scientific). Raji-GFP-Luc cells were purchased from Biocytogen (catalogue no. B-HCL-010) and cultured in Roswell Park Memorial Institute (RPMI) 1640 (catalogue no. 21875, Thermo Fisher Scientific). Jurkat cells were purchased from ATCC (catalogue no. TIB-152) and cultured in RPMI 1640. RAW 264.7 cells were purchased from ATCC (catalogue no. TIB-71) and cultured in RPMI 1640. HeLa cells were a gift from P. Lehner (University of Cambridge) and were authenticated using short tandem repeat profiling (Eurofins Genomics). HeLa cells were cultured in DMEM. […] Cell number and viability was determined using the ADAM-MC Automated Cell Counter (NanoEntek), CellDrop Automated Cell Counter (DeNovix) or TC20 Automated Cell Counter (Bio-Rad Laboratories).

With `CCOC(=O)CCCC(=O)OCC` [DEG, Diethyl glutarate] the “abundance of CD62L^hiCD44^hi (TCM-like) CD8^+ T cells” value ([1]; 400 µM test compound, 7 days of culture) was “significantly increased”, the “effector memory T (TEM) cell population (CD62L^loCD44^hi)” value ([1]; 7 days of culture with DEG) was “decreased” and the “CD62L^hiCD44^hi TCM population” value ([1]; increasing concentrations of DEG, 7 days) was “increased the CD62L^hiCD44^hi TCM population in a dose-dependent manner”. For the same compound, the “dimethylation of H3K9” value [2] was “increased”, the “trimethylation of H3K9” value [2] was “increased” and the “trimethylation of H3K27” value [2] was “increased”. The “growth of murine OT1 T cells” value [3] was “did not affect the growth”.
